Laboratory results published in article PMC4335020, “Single Oral Dose Pharmacokinetics of Decursin and Decursinol Angelate in Healthy Adult Men and Women” (PLoS ONE, 2015).

How the values were obtained:
[1] = set-up: method as in ref 23 = [23]; 23 Zhang J, Li L, Tang S, Zhang Y, Markiewski M, et al. (2013) Subchronic Toxicological Evaluation of Ethanol Extract of Medicinal Herb Angelica gigas Nakai and its Pyranocoumarin Tissue Distribution; conditions: rodents; cited from earlier work
[2] = test system: murine colon carcinoma CT-26 cells; set-up: method as in PMID 21170925; conditions: daily oral 10 mg/kg for 14 days, 30 minutes prior to CT-26 injection through tail vein; cited from earlier work
[3] = Stability of D and DA in fresh human whole blood and plasma; type: in vitro ADME; conditions: 37°C for 1 h, no detectable generation of DOH and other metabolites (data not shown)
Experimental: To rule out possible artifacts of blood collection, processing and blood-borne esterases, we tested the stability of D and DA in freshly obtained human whole blood and plasma. There was no loss of D and DA in plasma and whole blood after incubation at 37°C for 1 h, with no detectable generation of DOH and other metabolites (data not shown).

[4] = set-up: method as in PMID 24026903; conditions: in vitro; cited from earlier work
[5] = set-up: method as in ref (9) of IRB protocol; conditions: ref (9) of IRB protocol; cited from earlier work
[6] = test system: human umbilical vein endothelial (HUVEC) cells; set-up: method as in PMID 19307054; conditions: 1 μmol/L; cited from earlier work
[7] = test system: cultured prostate and breast cancer cells; set-up: method as in PMID 15705905, PMID 17363485, PMID 17986353; conditions: up to 100 μM; cited from earlier work
[8] = test system: primary cultures of rat cortical cells; set-up: method as in PMID 17637179; conditions: as low as 0.1 μmol/L; cited from earlier work

Row | SMILES | tissue/plasma ratios [1] | formation of tumor nodules in the lungs and lung weight [2] | loss after incubation in plasma and whole blood [3] | rate of metabolism by human vs mouse and rat liver S9 fraction [4] | rate of metabolism by human vs mouse and rat liver microsomes [5] | VEGF-induced proliferation and capillary-tube formation [6] | anti-proliferative effect [7] | protective effect on glutamate-injured cells [8]
1 | CC(C)=CC(=O)O[C@H]1Cc2cc3ccc(=O)oc3cc2OC1(C)C [D, decursin] | substantially greater than that of DOH | reduced the formation of tumor nodules in the lungs and decreased lung weight | no loss | metabolized more slowly by human liver S9 fraction | metabolized much slower by human | – | – | –
2 | C/C=C(/C)C(=O)O[C@H]1Cc2cc3ccc(=O)oc3cc2OC1(C)C [DA, decursinol angelate] | substantially greater than that of DOH | – | no loss | metabolized more slowly by human liver S9 fraction | metabolized much slower by human | – | – | –
3 | CC1(C)Oc2cc3oc(=O)ccc3cc2C[C@@H]1O [DOH, decursinol] | – | – | – | – | – | significantly inhibited | little anti-proliferative effect | strong protective effect
